# Assay results taken from patent US10562910B2, “Nitrogen-containing tricyclic compounds and uses thereof in medicine” (SUNSHINE LAKE PHARMA CO., LTD., priority 2016, dated 2020).
# Tests used:
# FXR-LBD = FXR-LBD (Homo sapiens (Human), UniProt Q96RI1); assay: TR-FRET Farnesoid X Receptor Coactivator Assay; assay type: biochemical; conditions: TR-FRET farnesoid X receptor protein coactivator activity
# Procedure: Purchasing invitrogen PV4833 kits. The procedure refers to LanthaScreen™ TR-FRET Farnesoid X Receptor Coactivator Assay
# First, the required amount of the compound was weighed and dissolved in 100% DMSO at the maximum concentration of 3000 μM. The solution at the maximum concentration was diluted by 3-fold serial dilution in DMSO to get 10 concentrations;
# Second, the above prepared solutions of different concentrations were diluted to 50-fold with a buffer supplied with the kit, to 2× compound solution, followed by mixing and then 10 μL of the diluted solution was added to a 384 well plate;
# Third, FXR-LBD was diluted with a buffer to 4× solution, and 5 μL of the diluent was added to the 384 well plate of second step;
# Fourth, Fluorescein-SRC2-2 and Tb anti-GST antibody were diluted to 4× Fluorescein-SRC2-2 and Tb anti-GST antibody solution. Then two reagents were mixed together, and 5 μL of the mixture was added to the 384 well plate of third step;
# Finally, the solution of the 384 well above was mixed uniformly by centrifuging, and then incubated at room temperature for 1 h. Then the TR-FRET Endpoint method was used for measuring the solution at wavelengths of 520 nm, 495 nm and 337 nm.
# [1] = Pharmacokinetics test in SD rats; assay type: in vivo; conditions: rat, plasma, male SD rats; for Vd: read-out: Vss; for bioavailability: po 5 mg/kg vs iv 1 mg/kg
# Procedure: Example 22 Pharmacokinetics Test
# Experimental animals: six healthy adult male SD rats (purchased from Hunan SJA Laboratory Animal Co. Ltd.) were divided into two groups, three rats in each group, and the two groups were given intravenous injection and oral administration respectively.
# Drug preparation: a quantity of a compound of the present invention was weighed, and 5% DMSO, 10% Kolliphor HS15 and 85% saline (0.9%) were added to give target concentrations of the compound solution.
# Administration and sample collection: animals were fasted for 12 h before administration, and fed at the time point of 3 hours after the administration. SD rats of one group were given intravenous injection (IV, 1 mg/kg) via hind legs and SD rats of the other group were given oral administration (PO, 5 mg/kg) respectively. Then blood was collected in the rat tail vein at the time point of 0, 0.083, 0.25, 0.5, 1, 2, 4, 6, 8, 24 h respectively, and the blood volume was about 200-400 μL/time point. After the collection of whole blood at each time point, the collected blood was set in K2EDTA anticoagulant tube, and the tube was placed in the incubator with ice packs. All samples were centrifuged for 5 min at 4° C. at 4600 r/min within 15 min. Plasma was separated and collected. The concentrations of different compounds in the plasma of the rats after administration were measured using LC/MS/MS method, and the pharmacokinetic parameters were calculated according to the curve of the drug concentration-time.
# [2] = molecular target: FXR ligand binding domain (LBD) (Homo sapiens (Human), UniProt Q96RI1); assay: Mammalian one hybrid (M1H) GAL4 reporter gene assay in HEK293 cells; assay type: cell-based; conditions: GAL4 reporter gene test
# FXR ligand binding domain (LBD), sequence (Q96RI1 261-481): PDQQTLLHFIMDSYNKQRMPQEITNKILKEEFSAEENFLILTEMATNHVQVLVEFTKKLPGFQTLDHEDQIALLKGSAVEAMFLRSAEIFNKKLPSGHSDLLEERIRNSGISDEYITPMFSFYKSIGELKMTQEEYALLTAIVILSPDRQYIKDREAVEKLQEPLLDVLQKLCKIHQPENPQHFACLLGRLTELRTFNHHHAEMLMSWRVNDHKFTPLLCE
# Text: Mammalian one hybrid technology is also called chimeric receptor gene assay. Based on the GAL4 chimera receptor assay, the activity of compounds which mediated activation of FXR was detected by dual luciferase reporter assay. The methods were as follows: cDNA encoding the FXR ligand binding domain (LBD), the yeast GAL4 DNA binding domain (DBD) and the Renilla luciferase DNA were fused to construct a chimera expression plasmid pBIND-FXR (Promega). […] The plasmid pG5Luc (Promega) was used as the reporter plasmid, containing the GAL4 upstream activation sequence (UAS) and the Firefly luciferase receptor gene. All GAL4 reporter gene assays were done in HEK293 cells. Cells were cultured at 37° C., 5% CO2 under humidified conditions. […] The contents were mixed completely and incubated the mixtures for 15 minutes at room temperature. The volume of the transfection mixture was 2.5 μl/well. Trypsinized and diluted the cell slurry at a density of […] (100 μl/well for 96-well plate). Then added required volume of transfection mixture prepared previously into the cell slurry, and dispensed 100 μl/well of the cell slurry into the 96-well plate and incubated the plate for 24 hours at 37° C., 5% CO2 under humidified conditions. Compounds prediluted in complete medium were added into each well and then incubated at 37° C., 5% CO2 under humidified conditions for 18 hours. The firefly and renilla luciferase signal was assayed by Promega's Dual Luciferase Reporter Assay System.
# The % Activation value was calculated by the following equation: Activation %=[(X−Min)/(Max−Min)]×100%. “X” is the “F/R” value from compounds. “F/R” means “Firefly/Renilla”. “Min” is the mean “F/R” value from no compound control. “Max” is the mean “F/R” value from reference compound control. Finally, the EC50 value of each compounds were calculated by GraphPrism 5.0.
# FXR-LBD, sequence (Q96RI1 262-486): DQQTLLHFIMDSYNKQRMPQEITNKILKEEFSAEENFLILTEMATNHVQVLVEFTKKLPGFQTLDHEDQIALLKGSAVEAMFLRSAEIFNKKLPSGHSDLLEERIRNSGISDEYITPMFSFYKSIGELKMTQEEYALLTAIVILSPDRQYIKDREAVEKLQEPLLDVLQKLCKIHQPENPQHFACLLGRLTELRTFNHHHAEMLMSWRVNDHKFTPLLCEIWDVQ
SMILES,EC50 (FXR-LBD) [µM],AUC(0-inf) ([1]; iv 1 mg/kg) [ng·h/mL],AUC(0-t) ([1]; iv 1 mg/kg) [ng·h/mL],Cmax ([1]; iv 1 mg/kg) [ng/mL],MRT inf ([1]; iv 1 mg/kg) [min],Tmax ([1]; iv 1 mg/kg) [min],clearance ([1]; iv 1 mg/kg) [mL/min/kg],half-life ([1]; iv 1 mg/kg) [min],Vd ([1]; iv 1 mg/kg) [L/kg],AUC(0-inf) ([1]; po 5 mg/kg) [ng·h/mL],AUC(0-t) ([1]; po 5 mg/kg) [ng·h/mL],Cmax ([1]; po 5 mg/kg) [ng/mL],MRT inf ([1]; po 5 mg/kg) [min],Tmax ([1]; po 5 mg/kg) [min],half-life ([1]; po 5 mg/kg) [min],bioavailability [1] [%],EC50 [2] [µM]
"O=C(O)c1ccc2c(c1)Oc1ccc(OCc3c(-c4c(Cl)cccc4Cl)noc3C3CC3)nc1C=C2F [Example 1, 2-((5-cyclopropyl-3-(2,6-dichlorophenyl)isoxazol-4-yl)methoxy)-10-fluorobenzo[6,7]oxepino[3,2-b]pyridine-7-carboxylic acid]",0.0493,1540,1540,1890,47.5,4.98,11.2,43.4,0.522,4210,4180,2760,79.2,30,54.8,55,–
"O=C(O)c1ccc2c(c1)Oc1ccc(OCc3c(-c4c(Cl)cccc4Cl)noc3C3CC3)nc1CO2 [Example 2, 2-((5-cyclopropyl-3-(2,6-dichlorophenyl)isoxazol-4-yl)methoxy)-11H-benzo[2,3][1,4]dioxepino[6,5-b]pyridine-7-carboxylic acid]",0.0051,1150,1150,2060,32.9,4.98,14.8,53,0.479,4110,4110,3640,55.9,30,42.6,72,–
"O=C(O)c1ccc2c(c1)Oc1ccc(OCc3c(-c4c(Cl)cccc4Cl)noc3C3CC3)nc1C1CC21 (stereo not drawn) [Example 3, 3-((5-cyclopropyl-3-(2,6-dichlorophenyl)isoxazol-4-yl)methoxy)-1a,10b-dihydro-1H-benzo[6,7]cyclopropa[4,5]oxepino[3,2-b]pyridine-8-carboxylic acid]",0.0761,–,–,–,–,–,–,–,–,–,–,–,–,–,–,–,–
"O=C(O)c1cc(F)c2c(c1)Oc1ccc(OCc3c(-c4c(Cl)cccc4Cl)noc3C3CC3)nc1CC2 [Example 4, 2-((5-cyclopropyl-3-(2,6-dichlorophenyl)isoxazol-4-yl)methoxy)-9-fluoro-10,11-dihydrobenzo[6,7]oxepino[3,2-b]pyridine-7-carboxylic acid]",0.0604,–,–,–,–,–,–,–,–,–,–,–,–,–,–,–,–
"O=C(O)c1ccc2c(c1)Oc1ccc(OCc3c(-c4c(Cl)cccc4Cl)noc3C3CC3)nc1C(F)=C2 [Example 5, 2-((5-cyclopropyl-3-(2,6-dichlorophenyl)isoxazol-4-yl)methoxy)-11-fluorobenzo[6,7]oxepino[3,2-b]pyridine-7-carboxylic acid]",–,1580,1580,3040,32.9,4.98,10.6,40.9,0.344,7480,7450,6430,64.2,30,50.3,95,–
"O=C(O)c1cc2c(cc1F)CCc1nc(OCc3c(-c4c(Cl)cccc4Cl)noc3C3CC3)ccc1O2 [Example 6, 2-((5-cyclopropyl-3-(2,6-dichlorophenyl)isoxazol-4-yl)methoxy)-8-fluoro-10,11-dihydrobenzo[6,7]oxepino[3,2-b]pyridine-7-carboxylic acid]",0.031,–,–,–,–,–,–,–,–,–,–,–,–,–,–,–,–
"O=C(O)c1ccc2c(c1)Oc1ccc(OCc3c(-c4c(Cl)cccc4Cl)noc3C3CC3)nc1C(C(F)(F)F)=C2 [Example 7, 2-((5-cyclopropyl-3-(2,6-dichlorophenyl)isoxazol-4-yl)methoxy)-11-(trifluoromethyl)benzo[6,7]oxepino[3,2-b]pyridine-7-carboxylic acid]",–,–,–,–,–,–,–,–,–,–,–,–,–,–,–,–,0.011
